Measured values: PubChem BioAssay (NCI)
Values joined by “and” are separate entries in the source; they are usually repeats but may differ in a detail not shown here. Equal entries are not always repeated.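 Briefly, cells in 96-well plates were exposed to five compound concentrations for 48 h, and endpoints were estimated by linear interpolation. GI50 is the concentration that inhibits growth by half. TGI: total growth inhibition.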

What was measured:
Assay in all cases: NCI anticancer screen, dose series, 48 h
OVCAR-3 ovarian = tested on: OVCAR-3 ovarian
SN12C renal = tested on: SN12C renal
ACHN renal = tested on: ACHN renal
MOLT-4 leukemia = tested on: MOLT-4 leukemia
SK-MEL-28 melanoma = tested on: SK-MEL-28 melanoma
OVCAR-5 ovarian = tested on: OVCAR-5 ovarian
NCI-H460 lung = tested on: NCI-H460 lung
COLO 205 colon = tested on: COLO 205 colon
TK-10 renal = tested on: TK-10 renal
NCI-H226 lung = tested on: NCI-H226 lung

SMILES: CC1CC(c2ccccc2)=Nc2ccccc2S1(=O)=O (centres undefined)
- TGI (OVCAR-3 ovarian): 32.8 µM
- TGI (SN12C renal): 34.3 µM
- TGI (ACHN renal): 30.1 µM
- TGI (MOLT-4 leukemia): 33.3 µM
- TGI (SK-MEL-28 melanoma): 29.8 µM
- TGI (OVCAR-5 ovarian): 35.7 µM
- TGI (NCI-H460 lung): 34.9 µM
- TGI (COLO 205 colon): 40.9 µM
- TGI (TK-10 renal): 47.7 µM

SMILES: N#CCCc1nc2ccc(Br)cc2c(=O)n1CCO
- TGI (NCI-H226 lung): > 100 µM
- TGI (OVCAR-3 ovarian): > 100 µM
- TGI (SN12C renal): > 100 µM
- TGI (MOLT-4 leukemia): > 100 µM
- TGI (SK-MEL-28 melanoma): > 100 µM
- TGI (COLO 205 colon): > 100 µM
- TGI (TK-10 renal): > 100 µM

SMILES: O=C(Oc1ccc(O)c2c(=O)n3c(cc12)[nH]c1ccccc13)c1ccccc1
- GI50 (NCI-H226 lung): 18.9 µM
- TGI (NCI-H226 lung): 64.2 µM
- GI50 (SN12C renal): 12.6 µM
- TGI (SN12C renal): 54 µM
- GI50 (ACHN renal): 7.55 µM
- TGI (ACHN renal): 23.6 µM
- GI50 (MOLT-4 leukemia): 16.4 µM
- TGI (MOLT-4 leukemia): 62.6 µM
- GI50 (SK-MEL-28 melanoma): 24.9 µM
- TGI (SK-MEL-28 melanoma): 76.4 µM
- GI50 (OVCAR-5 ovarian): 28.4 µM
- TGI (OVCAR-5 ovarian): 73.2 µM
- GI50 (NCI-H460 lung): 81.7 µM
- TGI (NCI-H460 lung): > 100 µM
- GI50 (COLO 205 colon): 19.9 µM
- TGI (COLO 205 colon): 45.3 µM
- GI50 (TK-10 renal): 18.8 µM
- TGI (TK-10 renal): 40.8 µM

SMILES: Cc1cc(S(=O)(=O)Nc2nc(N)nc(N3N=CCC3C)n2)c(S)cc1Cl (centres undefined)
- TGI (NCI-H226 lung): > 10 µM
- TGI (OVCAR-3 ovarian): > 10 µM
- TGI (SN12C renal): > 10 µM
- TGI (ACHN renal): > 10 µM
- TGI (MOLT-4 leukemia): > 10 µM
- TGI (SK-MEL-28 melanoma): > 10 µM
- TGI (OVCAR-5 ovarian): > 10 µM
- TGI (NCI-H460 lung): > 10 µM
- TGI (COLO 205 colon): > 10 µM
- TGI (TK-10 renal): > 10 µM

SMILES: O=c1ccn(C2OC(CO)C(O)C2O)c(=O)[nH]1 (centres undefined)
- TGI (NCI-H226 lung): > 1000 µM
- GI50 (OVCAR-3 ovarian): > 1000 µM
- TGI (OVCAR-3 ovarian): > 1000 µM
- GI50 (SN12C renal): > 1000 µM
- TGI (SN12C renal): > 1000 µM
- GI50 (ACHN renal): > 1000 µM
- TGI (ACHN renal): > 1000 µM
- GI50 (MOLT-4 leukemia): 832 µM and > 10 µM
- TGI (MOLT-4 leukemia): > 1000 µM
- GI50 (SK-MEL-28 melanoma): > 1000 µM
- TGI (SK-MEL-28 melanoma): > 1000 µM
- TGI (OVCAR-5 ovarian): > 1000 µM
- GI50 (NCI-H460 lung): > 1000 µM
- TGI (NCI-H460 lung): > 1000 µM
- GI50 (COLO 205 colon): > 1000 µM
- TGI (COLO 205 colon): > 1000 µM
- GI50 (TK-10 renal): > 1000 µM
- TGI (TK-10 renal): > 1000 µM

SMILES: CC1(C)C=CC[C@]2(C)[C@H]3CC[C@@H]4[C@H]5[C@H](C(=O)/C=C/c6cccnc6)CC[C@]5(CO)CC[C@@]4(C)[C@]3(C)CC[C@@H]12
- GI50 (NCI-H226 lung): 1.33 µM
- TGI (NCI-H226 lung): 3.08 µM
- GI50 (OVCAR-3 ovarian): 1.37 µM
- TGI (OVCAR-3 ovarian): 2.71 µM
- GI50 (SN12C renal): 1.07 µM
- TGI (SN12C renal): 2.45 µM
- GI50 (ACHN renal): 1.14 µM
- TGI (ACHN renal): 2.35 µM
- GI50 (MOLT-4 leukemia): 0.539 µM
- TGI (MOLT-4 leukemia): 2.94 µM
- GI50 (SK-MEL-28 melanoma): 1.54 µM
- TGI (SK-MEL-28 melanoma): 2.98 µM
- GI50 (OVCAR-5 ovarian): 1.32 µM
- TGI (OVCAR-5 ovarian): 2.83 µM
- GI50 (NCI-H460 lung): 1.03 µM
- TGI (NCI-H460 lung): 2.41 µM
- GI50 (COLO 205 colon): 1.69 µM
- TGI (COLO 205 colon): 3.69 µM
- GI50 (TK-10 renal): 1.81 µM
- TGI (TK-10 renal): 3.26 µM

SMILES: CCN(CC)CCn1c2c3ccccc3ccc2c2oc(=O)c3ccccc3c21
- TGI (OVCAR-3 ovarian): > 100 µM
- TGI (ACHN renal): > 100 µM
- TGI (SK-MEL-28 melanoma): > 100 µM
- TGI (OVCAR-5 ovarian): > 100 µM
- TGI (NCI-H460 lung): > 100 µM
- TGI (COLO 205 colon): > 100 µM
- TGI (TK-10 renal): > 100 µM

SMILES: CC(=O)O/N=C/c1ncccc1CO
- TGI (NCI-H226 lung): > 100 µM
- TGI (OVCAR-3 ovarian): > 100 µM
- TGI (SN12C renal): > 100 µM
- TGI (ACHN renal): > 100 µM
- TGI (MOLT-4 leukemia): > 100 µM
- TGI (SK-MEL-28 melanoma): > 100 µM
- TGI (OVCAR-5 ovarian): > 100 µM
- TGI (NCI-H460 lung): > 100 µM
- TGI (COLO 205 colon): > 100 µM
- TGI (TK-10 renal): > 100 µM

SMILES: CC(=O)NC(CCCCNC(=O)OCc1ccccc1)C(=O)NCc1ccccc1 (centres undefined)
- TGI (NCI-H226 lung): > 100 µM
- TGI (OVCAR-3 ovarian): > 100 µM
- TGI (SN12C renal): > 100 µM
- TGI (ACHN renal): > 100 µM
- TGI (MOLT-4 leukemia): > 100 µM
- TGI (SK-MEL-28 melanoma): > 100 µM
- TGI (OVCAR-5 ovarian): > 100 µM
- TGI (NCI-H460 lung): > 100 µM
- TGI (COLO 205 colon): > 100 µM
- TGI (TK-10 renal): > 100 µM
